# Read-outs that look alike come from different tables or passages of the source. Non-standard residues stand in square brackets, D forms with d. Residues, ends and D or L forms follow the SMILES beside them. *: point of attachment. Palmitoyl = CCCCCCCCCCCCCCCC(=O)*; Myristoyl = CCCCCCCCCCCCCC(=O)*; Lauroyl = CCCCCCCCCCCC(=O)*
# Legend:
# Assay type in all cases: cell-based
# E. coli D21 = tested on: E. coli D21
# [1] = tested on: Acinetobacter baumannii ATCC 19606
# How it was run: (§1)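 MIC = lowest concentration with 100% growth inhibition, judged from A600 after 18-20 h incubation at 37° C. Bacteria at 1×10^6 CFU/ml in LB (pH 7.4 unless pH 5.5 stated) combined with equal volume of serially 2-fold diluted lipopeptide.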
# E. aerogenes ATCC 35029 = details: ATCC 35029, pH 7.4
# How it was run: as §1
# E. coli ATCC 35218 = details: ATCC 35218, pH 7.4
# How it was run: as §1
# [2] = tested on: Escherichia coli ATCC 25922
# How it was run: as §1
# [3] = tested on: Pseudomonas aeruginosa ATCC 27853
# How it was run: as §1
# [4] = tested on: Staphylococcus aureus ATCC 6538P
# How it was run: as §1
# [5] = tested on: Candida albicans ATCC 10231; assay: microbe, parasite or virus in culture
# How it was run: (§2)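 In this assay, each strain, prepared at 1×10^4 CFU/ml before mixing, met serial twofold peptide dilutions in RPMI 1640 buffered with 0.165 M MOPS. Unless noted, pH was 7.4; a pH 5.5 condition was also run. After 24-48 h incubation (35 °C, agitated), wells were scored at 620 nm for total inhibition.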
# [6] = tested on: Cryptococcus neoformans ATCC 66031; assay: microbe, parasite or virus in culture
# How it was run: as §2
# [7] = tested on: Cryptococcus neoformans ATCC MYA-422; assay: microbe, parasite or virus in culture; details: ATCC MYA-422, pH 7.4
# [8] = tested on: Aspergillus fumigatus ATCC 26430; assay: microbe, parasite or virus in culture
# [9] = Cytotoxicity, XTT viability, non-cancer cells; details: mouse, non-cancer cell line, 24 h incubation, read-out: LC50, 3T3
# Protocol: Prostate cancer cell lines (CL1 and 22RV1; ATCC, USA) were grown in RPMI-1640 supplemented with 10% FCS (Biological Industries, Beit Haemek, Israel). N1H-3T3 mouse fibroblast cell line (ATCC, USA) was grown in DMEM supplemented with 10% bovine serum. To test cytotoxicity against the cancer cells, aliquots of medium containing 1×10^4 cells were distributed into a 96-well plate (Falcon). After one day, the media were replaced with 90 μl of fresh media and 10 μl of a solution containing different concentrations of the peptides. The plate was then incubated for 24 h before adding to each well 50 μl of XTT reaction solution (Biological Industries, Beit Haemek, Israel); viability was determined as previously described (Papo et al., (2003) J. Biol. Chem. 278:21018-23). The LC50 (concentration at which 50% of the cells die) for each peptide was obtained from the dose-dependent cell viability curves.
# M. laleus = details: Table 3, short lipopeptides; pH 7.4
# How it was run: as §1
# [10] = Table 3, short lipopeptides, pH 7.4
molecule,measurement,setting,value
"CCCCCCCCCCCC(=O)N[C@H](CC(C)C)C(=O)N[C@@H](CCCCN)C(=O)N[C@@H](CCCCN)C(=O)N[C@H](CC(C)C)C(=O)N[C@H](CC(C)C)C(=O)N[C@@H](CCCCN)C(=O)N[C@@H](CCCCN)C(=O)N[C@H](CC(C)C)C(=O)N[C@H](CC(C)C)C(=O)N[C@@H](CCCCN)C(=O)N[C@@H](CCCCN)C(=O)N[C@H](CC(C)C)C(N)=O [lipopeptide 22, (CH3-(CH2)10-CO-)-D-Leu-Lys-Lys-D-Leu-D-Leu-Lys-Lys-D-Leu-D-Leu-Lys-Lys-D-Leu-NH2] (Lauroyl-[dL]KK[dL][dL]KK[dL][dL]KK[dL]-NH2)","Minimal inhibitory concentrations, E. Coli D21","E. coli D21; D21, pH 5.5",25 µM
same,"Minimal inhibitory concentrations, E. Coli D21","E. coli D21; D21, pH 7.4",25 µM
same,"Minimal inhibitory concentrations, A. baumannii ATCC 19606","[1]; ATCC 19606, pH 5.5",25 µM
same,"Minimal inhibitory concentrations, A. baumannii ATCC 19606","[1]; ATCC 19606, pH 7.4",25 µM
same,"Minimal Inhibitory Concentration, E. aerogenes ATCC 35029",E. aerogenes ATCC 35029,50 µM
same,"Minimal Inhibitory Concentration, E. coli ATCC 35218",E. coli ATCC 35218,25 µM
same,"Minimal inhibitory concentrations, E. Coli ATCC 25922","[2]; ATCC 25922, pH 5.5",50 µM
same,"Minimal inhibitory concentrations, E. Coli ATCC 25922","[2]; ATCC 25922, pH 7.4",75 µM
same,"Minimal inhibitory concentrations, P. Aeruginosa ATCC 27853","[3]; ATCC 27853, pH 5.5",12.5 µM
same,"Minimal Inhibitory Concentration, P. aeruginosa ATCC 27853","[3]; ATCC 27853, pH 7.4",25 µM
same,"Minimal inhibitory concentrations, P. Aeruginosa ATCC 27853","[3]; ATCC 27853, pH 7.4",25 µM
same,"Minimal inhibitory concentrations, S. aureus II ATCC 6538P","[4]; ATCC 6538, pH 5.5",>100 µM
same,"Minimal Inhibitory Concentration, S. aureus ATCC 6538P","[4]; ATCC 6538, pH 7.4",12.5 µM
same,"Minimal inhibitory concentrations, S. aureus II ATCC 6538P","[4]; ATCC 6538, pH 7.4",3.125 µM
same,MIC,"[5]; ATCC 10231, pH 5.5, read-out: Minimal inhibitory concentrations, C. Albicans With serum",>100 µM
same,MIC,"[5]; ATCC 10231, pH 5.5, read-out: Minimal inhibitory concentrations, C. Albicans Without serum",100 µM
same,"Minimal Inhibitory Concentration, C. albicans ATCC 10231","[5]; ATCC 10231, pH 7.4",12.5 µM
same,MIC,"[5]; ATCC 10231, pH 7.4, read-out: Minimal inhibitory concentrations, C. Albicans With serum",100 µM
same,MIC,"[5]; ATCC 10231, pH 7.4, read-out: Minimal inhibitory concentrations, C. Albicans Without serum",3.125 µM
same,MIC,"[6]; ATCC 66031, pH 5.5, read-out: Minimal inhibitory concentrations, C. Neofor. With serum",1.56 µM
same,MIC,"[6]; ATCC 66031, pH 5.5, read-out: Minimal inhibitory concentrations, C. Neofor. Without serum",<0.78 µM
same,MIC,"[6]; ATCC 66031, pH 7.4, read-out: Minimal inhibitory concentrations, C. Neofor. With serum",<0.78 µM
same,MIC,"[6]; ATCC 66031, pH 7.4, read-out: Minimal inhibitory concentrations, C. Neofor. Without serum",<0.78 µM
same,"Minimal Inhibitory Concentration, C. neoformans ATCC MYA-422",[7],0.78 µM
same,MIC,"[8]; ATCC 26430, pH 5.5, read-out: Minimal inhibitory concentrations, A. Fumig. With serum",100 µM
same,MIC,"[8]; ATCC 26430, pH 5.5, read-out: Minimal inhibitory concentrations, A. Fumig. Without serum",75 µM
same,"Minimal Inhibitory Concentration, A. fumigatus ATCC 26430","[8]; ATCC 26430, pH 7.4",6.25 µM
same,MIC,"[8]; ATCC 26430, pH 7.4, read-out: Minimal inhibitory concentrations, A. Fumig. With serum",50 µM
same,MIC,"[8]; ATCC 26430, pH 7.4, read-out: Minimal inhibitory concentrations, A. Fumig. Without serum",12.5 µM
same,CC50 at 24 h,[9],50 µM
"CCCCCCCCCCCCCC(=O)N[C@H](CC(C)C)C(=O)N[C@@H](CCCCN)C(=O)N[C@@H](CCCCN)C(=O)N[C@H](CC(C)C)C(=O)N[C@H](CC(C)C)C(=O)N[C@@H](CCCCN)C(=O)N[C@@H](CCCCN)C(=O)N[C@H](CC(C)C)C(=O)N[C@H](CC(C)C)C(=O)N[C@@H](CCCCN)C(=O)N[C@@H](CCCCN)C(=O)N[C@H](CC(C)C)C(N)=O [lipopeptide 23, (CH3-(CH2)12-CO-)-D-Leu-Lys-Lys-D-Leu-D-Leu-Lys-Lys-D-Leu-D-Leu-Lys-Lys-D-Leu-NH2] (Myristoyl-[dL]KK[dL][dL]KK[dL][dL]KK[dL]-NH2)","Minimal Inhibitory Concentration, E. aerogenes ATCC 35029",E. aerogenes ATCC 35029,>50 µM
same,"Minimal Inhibitory Concentration, E. coli ATCC 35218",E. coli ATCC 35218,50 µM
same,"Minimal Inhibitory Concentration, P. aeruginosa ATCC 27853","[3]; ATCC 27853, pH 7.4",50 µM
same,"Minimal Inhibitory Concentration, S. aureus ATCC 6538P","[4]; ATCC 6538, pH 7.4",50 µM
same,"Minimal Inhibitory Concentration, C. albicans ATCC 10231","[5]; ATCC 10231, pH 7.4",1.56 µM
same,"Minimal Inhibitory Concentration, C. neoformans ATCC MYA-422",[7],0.78 µM
same,"Minimal Inhibitory Concentration, A. fumigatus ATCC 26430","[8]; ATCC 26430, pH 7.4",1.56 µM
same,CC50 at 24 h,[9],50 µM
"CCCCCCCCCCCCCCCC(=O)N[C@H](CC(C)C)C(=O)N[C@@H](CCCCN)C(=O)N[C@@H](CCCCN)C(=O)N[C@H](CC(C)C)C(=O)N[C@H](CC(C)C)C(=O)N[C@@H](CCCCN)C(=O)N[C@@H](CCCCN)C(=O)N[C@H](CC(C)C)C(=O)N[C@H](CC(C)C)C(=O)N[C@@H](CCCCN)C(=O)N[C@@H](CCCCN)C(=O)N[C@H](CC(C)C)C(N)=O [lipopeptide 24, (CH3-(CH2)14-CO-)-D-Leu-Lys-Lys-D-Leu-D-Leu-Lys-Lys-D-Leu-D-Leu-Lys-Lys-D-Leu-NH2] (Palmitoyl-[dL]KK[dL][dL]KK[dL][dL]KK[dL]-NH2)","Minimal Inhibitory Concentration, E. aerogenes ATCC 35029",E. aerogenes ATCC 35029,>50 µM
same,"Minimal Inhibitory Concentration, E. coli ATCC 35218",E. coli ATCC 35218,50 µM
same,"Minimal Inhibitory Concentration, P. aeruginosa ATCC 27853","[3]; ATCC 27853, pH 7.4",>50 µM
same,"Minimal Inhibitory Concentration, S. aureus ATCC 6538P","[4]; ATCC 6538, pH 7.4",50 µM
same,"Minimal Inhibitory Concentration, C. albicans ATCC 10231","[5]; ATCC 10231, pH 7.4",1.56 µM
same,"Minimal Inhibitory Concentration, C. neoformans ATCC MYA-422",[7],0.78 µM
same,"Minimal Inhibitory Concentration, A. fumigatus ATCC 26430","[8]; ATCC 26430, pH 7.4",1.56 µM
same,CC50 at 24 h,[9],50 µM
Gentamycin [reference compound],"Minimal Inhibitory Concentration, E. coli-D21",E. coli D21; [10],1.56 µM
same,"Minimal inhibitory concentrations, E. Coli D21","E. coli D21; Table 6, pH 7.4",12.5 µM
same,"Minimal inhibitory concentrations, E. Coli D21","E. coli D21; Table 7, pH 5.5",12.5 µM
same,"Minimal Inhibitory Concentration, A. baumannii ATCC 19606",[1]; [10],3.12 µM
same,"Minimal inhibitory concentrations, A. baumannii ATCC 19606","[1]; Table 6, pH 7.4",12.5 µM
same,"Minimal inhibitory concentrations, A. baumannii ATCC 19606","[1]; Table 7, pH 5.5",12.5 µM
same,"Minimal inhibitory concentrations, E. Coli ATCC 25922","[2]; Table 6, pH 7.4",6.25 µM
same,"Minimal inhibitory concentrations, E. Coli ATCC 25922","[2]; Table 7, pH 5.5",12.5 µM
same,"Minimal Inhibitory Concentration, M. laleus",M. laleus,0.78 µM
same,"Minimal Inhibitory Concentration, P. aeruginosa ATCC 27853",[3]; [10],0.78 µM
same,"Minimal inhibitory concentrations, P. Aeruginosa ATCC 27853","[3]; Table 6, pH 7.4",12.5 µM
same,"Minimal inhibitory concentrations, P. Aeruginosa ATCC 27853","[3]; Table 7, pH 5.5",12.5 µM
same,"Minimal Inhibitory Concentration, S. aureus ATCC 6538P",[4]; [10],6.25 µM
same,"Minimal inhibitory concentrations, S. aureus II ATCC 6538P","[4]; Table 6, pH 7.4",12.5 µM
same,"Minimal inhibitory concentrations, S. aureus II ATCC 6538P","[4]; Table 7, pH 5.5",25 µM

# Source: patent publication US8445636B2, “Antimicrobial and anticancer lipopeptides” (Yeda Research & Development Co. Ltd., priority 2003, dated 2013)
